Measurements reported in patent US10584115B2, “Substituted pyridine and pyrazine BMI-1 inhibitors” (PTC Therapeutics, Inc., priority 2013, dated 2020).
Like-named read-outs stand apart in the source and are kept apart here.

Tests used:
Bmi-1 protein = test: Sandwich ELISA Assay (Bmi-1 protein level in HT-1080 cells after compound treatment); format: cell-based
How it was run: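 Sandwich ELISA quantified Bmi-1 protein against recombinant standard (125–8000 pg/mL), with lysates captured overnight at 4 °C and signal by HRP/TMB at 450 nm (570 nm reference). Lysates came from HT-1080 cells incubated 40–48 h with test compounds in 0.5% DMSO.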

[1] = Table 1, Bmi-1 sandwich ELISA, read-out: ELISA EC50 value for Bmi-1 protein
[2] = read-out: ELISA EC50 value for Bmi-1 protein, Table 1, Bmi-1 sandwich ELISA

SMILES	EC50 (Bmi-1 protein; [1]) [nM]	melting point [°C]	EC50 (Bmi-1 protein; [2]) [nM]
FC(F)(F)Oc1ccc(Nc2cncc(-c3cccc4nc(C5CC5)cn34)n2)cc1 [compound 87, 6-(2-cyclopropylimidazo[1,2-a]pyridin-5-yl)-N-[4-(trifluoromethoxy)phenyl]pyrazin-2-amine]	100 to 3000	225 to 227	–
FC(F)(F)c1ccc(Nc2cncc(-c3cccc4nc(C5CC5)cn34)n2)cc1 [compound 89, 6-(2-cyclopropylimidazo[1,2-a]pyridin-5-yl)-N-[4-(trifluoromethyl)phenyl]pyrazin-2-amine]	100 to 3000	266 to 268	–
FC1(F)Oc2ccc(Nc3cncc(-c4c(C(F)(F)F)nc5ccccn45)n3)cc2O1 [compound 91, N-(2,2-difluoro-1,3-benzodioxol-5-yl)-6-[2-(trifluoromethyl)imidazo[1,2-a]pyridin-3-yl]pyrazin-2-amine]	100 to 3000	232 to 234	–
Cc1csc(Nc2cncc(-c3c(C(F)(F)F)nc4ccccn34)n2)n1 [compound 96, N-(4-methyl-1,3-thiazol-2-yl)-6-[2-(trifluoromethyl)imidazo[1,2-a]pyridin-3-yl]pyrazin-2-amine]	100 to 3000	317 to 319	–
FC(F)(F)c1ccc(Nc2cncc(-c3cccc4nc(C5CCC5)cn34)n2)cc1 [compound 114, 6-(2-cyclobutylimidazo[1,2-a]pyridin-5-yl)-N-[4-(trifluoromethyl)phenyl]pyrazin-2-amine]	100 to 3000	288 to 290	–
FC1(F)Oc2ccc(Nc3cncc(-c4cccc5nc(C6CCC6)cn45)n3)cc2O1 [compound 117, 6-(2-cyclobutylimidazo[1,2-a]pyridin-5-yl)-N-(2,2-difluoro-1,3-benzodioxol-5-yl)pyrazin-2-amine]	100 to 3000	302 to 305	–
Cc1noc(C)c1-c1cncc(Nc2ccc(C(F)(F)F)cc2)n1 [compound 127, 6-(3,5-dimethyl-1,2-oxazol-4-yl)-N-[4-(trifluoromethyl)phenyl]pyrazin-2-amine]	–	208 to 210	10 to 100
FC(F)(F)c1ccc(Nc2cncc(-c3c(C4CC4)nc4ccccn34)n2)cc1 [compound 129, 6-(2-cyclopropylimidazo[1,2-a]pyridin-3-yl)-N-[4-(trifluoromethyl)phenyl]pyrazin-2-amine]	–	215 to 217	1 to 10
Cc1cnc(Nc2cccc(-c3c(C(F)(F)F)nc4ccccn34)n2)s1 [compound 147, N-(5-methyl-1,3-thiazol-2-yl)-6-[2-(trifluoromethyl)imidazo[1,2-a]pyridin-3-yl]pyridin-2-amine]	100 to 3000	270 to 271	–
Cc1nc(Nc2cccc(-c3c(C(F)(F)F)nc4ccccn34)n2)sc1C [compound 149, N-(4,5-dimethyl-1,3-thiazol-2-yl)-6-[2-(trifluoromethyl)imidazo[1,2-a]pyridin-3-yl]pyridin-2-amine]	100 to 3000	227 to 228	–
CCn1nc(C)c(-c2cncc(Nc3ccc(C(F)(F)F)cc3)n2)c1C [compound 175, 6-(1-ethyl-3,5-dimethyl-1H-pyrazol-4-yl)-N-[4-(trifluoromethyl)phenyl]pyrazin-2-amine]	–	78 to 79	1 to 10
COC(=O)c1ccc2nc(C(F)(F)F)c(-c3cncc(Nc4ccc(OC(F)F)cc4)n3)n2c1 [compound 178, methyl 3-(6-{[4-(difluoromethoxy)phenyl]amino}pyrazin-2-yl)-2-(trifluoromethyl)imidazo[1,2-a]pyridine-6-carboxylate]	100 to 3000	227 to 229	–
CCc1nc(C)cn1-c1cncc(Nc2ccc(C(F)(F)F)cc2)n1 [compound 179, 6-(2-ethyl-4-methyl-1H-imidazol-1-yl)-N-[4-(trifluoromethyl)phenyl]pyrazin-2-amine]	–	207 to 208	100 to 3000
CCc1nc(C)cn1-c1cncc(Nc2ccc(OC(F)F)cc2)n1 [compound 180, N-[4-(difluoromethoxy)phenyl]-6-(2-ethyl-4-methyl-1H-imidazol-1-yl)pyrazin-2-amine]	100 to 3000	168 to 169	–
Cc1nc2cc(F)ccc2n1-c1cncc(Nc2ccc(OC(F)(F)F)cc2)n1 [compound 206, 6-(5-fluoro-2-methyl-1H-benzimidazol-1-yl)-N-[4-(trifluoromethoxy)phenyl]pyrazin-2-amine]	100 to 3000	248 to 250	–
Fc1ccc2c(c1)nc(C1CC1)n2-c1cncc(Nc2ccc(OC(F)F)cc2)n1 [compound 227, 6-(2-cyclopropyl-5-fluoro-1H-benzimidazol-1-yl)-N-[4-(difluoromethoxy)phenyl]pyrazin-2-amine]	10 to 100	188 to 190	–
Cc1nc2ccc(F)cc2n1-c1cncc(Nc2ccc(C(F)(F)F)cc2)n1 [compound 228, 6-(6-fluoro-2-methyl-1H-benzimidazol-1-yl)-N-[4-(trifluoromethyl)phenyl]pyrazin-2-amine]	–	243 to 245	1 to 10
Cc1nc2ccc(F)cc2n1-c1cncc(Nc2ccc(OC(F)(F)F)cc2)n1 [compound 230, 6-(6-fluoro-2-methyl-1H-benzimidazol-1-yl)-N-[4-(trifluoromethoxy)phenyl]pyrazin-2-amine]	10 to 100	215 to 217	–

Second part, led by results:

EC50 (Bmi-1 protein; [1]) [nM]	melting point [°C]	SMILES	EC50 (Bmi-1 protein; [2]) [nM]
10 to 100	139 to 140	COc1ccc(Nc2cccc(-c3c(C(F)(F)F)nc4ccc(OC)cn34)n2)cc1 [compound 104, N-(4-methoxyphenyl)-6-[6-methoxy-2-(trifluoromethyl)imidazo[1,2-a]pyridin-3-yl]pyridin-2-amine]	–
10 to 100	252 to 253	FC(F)Oc1ccc(Nc2cncc(-c3cccc4nc(C5CCC5)cn34)n2)cc1 [compound 115, 6-(2-cyclobutylimidazo[1,2-a]pyridin-5-yl)-N-[4-(difluoromethoxy)phenyl]pyrazin-2-amine]	–
10 to 100	223 to 225	COc1ccc(Nc2cncc(-c3cccc4nc(C5CCC5)cn34)n2)cc1 [compound 116, 6-(2-cyclobutylimidazo[1,2-a]pyridin-5-yl)-N-(4-methoxyphenyl)pyrazin-2-amine]	–
1 to 10	201 to 202	Cc1nn(C)c(C)c1-c1cncc(Nc2ccc(C(F)(F)F)cc2)n1 [compound 128, N-[4-(trifluoromethyl)phenyl]-6-(1,3,5-trimethyl-1H-pyrazol-4-yl)pyrazin-2-amine]	–
1 to 10	208 to 210	FC(F)Oc1ccc(Nc2cncc(-c3c(C4CC4)nc4ccccn34)n2)cc1 [compound 130, 6-(2-cyclopropylimidazo[1,2-a]pyridin-3-yl)-N-[4-(difluoromethoxy)phenyl]pyrazin-2-amine]	–
1 to 10	218 to 219	FC(F)(F)c1ccc(Nc2cncc(-c3c(C4CCC4)nc4ccccn34)n2)cc1 [compound 131, 6-(2-cyclobutylimidazo[1,2-a]pyridin-3-yl)-N-[4-(trifluoromethyl)phenyl]pyrazin-2-amine]	–
10 to 100	48 to 50	Cc1nn(C)c(C)c1-c1cccc(Nc2ccc(C(F)(F)F)cc2)n1 [compound 145, N-[4-(trifluoromethyl)phenyl]-6-(1,3,5-trimethyl-1H-pyrazol-4-yl)pyridin-2-amine]	–
10 to 100	71 to 72	Cc1nn(C)c(C)c1-c1cccc(Nc2ccc(OC(F)F)cc2)n1 [compound 146, N-[4-(difluoromethoxy)phenyl]-6-(1,3,5-trimethyl-1H-pyrazol-4-yl)pyridin-2-amine]	–
10 to 100	259 to 261	Cc1csc(Nc2cccc(-c3c(C(F)(F)F)nc4ccccn34)n2)n1 [compound 148, N-(4-methyl-1,3-thiazol-2-yl)-6-[2-(trifluoromethyl)imidazo[1,2-a]pyridin-3-yl]pyridin-2-amine]	–
1 to 10	317 to 320	FC(F)(F)c1nc2ccccn2c1-c1cncc(Nc2ccc(C3CC3)cc2)n1 [compound 165, N-(4-cyclopropylphenyl)-6-[2-(trifluoromethyl)imidazo[1,2-a]pyridin-3-yl]pyrazin-2-amine]	–
10 to 100	70 to 71	CCS(=O)(=O)n1nc(C)c(-c2cncc(Nc3ccc(C(F)(F)F)cc3)n2)c1C [compound 176, 6-[1-(ethylsulfonyl)-3,5-dimethyl-1H-pyrazol-4-yl]-N-[4-(trifluoromethyl)phenyl]pyrazin-2-amine]	–
< 1	180 to 182	Cc1nc2ccccn2c1-c1cncc(Nc2ccc(C(F)(F)F)cc2)n1 [compound 202, 6-(2-methylimidazo[1,2-a]pyridin-3-yl)-N-[4-(trifluoromethyl)phenyl]pyrazin-2-amine]	–
10 to 100	272 to 275	Cc1nc2cc(F)ccc2n1-c1cncc(Nc2ccc(C(F)(F)F)cc2)n1 [compound 204, 6-(5-fluoro-2-methyl-1H-benzimidazol-1-yl)-N-[4-(trifluoromethyl)phenyl]pyrazin-2-amine]	–
10 to 100	239 to 241	Cc1nc2cc(F)ccc2n1-c1cncc(Nc2ccc(OC(F)F)cc2)n1 [compound 205, N-[4-(difluoromethoxy)phenyl]-6-(5-fluoro-2-methyl-1H-benzimidazol-1-yl)pyrazin-2-amine]	–
1 to 10	200 to 202	Cc1nc2ccc(F)cc2n1-c1cncc(Nc2ccc(OC(F)F)cc2)n1 [compound 229, N-[4-(difluoromethoxy)phenyl]-6-(6-fluoro-2-methyl-1H-benzimidazol-1-yl)pyrazin-2-amine]	–
